In patent US4870002A, “Method of prevention of oxidative injury to cells” (priority 1985, dated 1989):
Read-outs that look alike come from different tables or passages of the source.

Legend:
[1] = system: L5178Y murine lymphosarcoma cells; assay: Growth curve after gamma irradiation (final/initial cell density); assay type: cell-based
Experimental: The cell density in a mass culture of thymidine hypoxanthine methotrexate glycine/thymidine hypoxanthine glycine (THMG/THG) treated L5178Y cells was determined by Coulter counter and the cells were diluted with fresh warm F10p medium to bring the cell density for treatment to 600,000 cells/ml. Volumes of 10 ml of cell suspension were distributed into three T-25 flasks, and 0.05 ml volumes of solutions of 3-aminotyrosine, as well as a 0.05 ml of distilled water used as a control, to provide a ratio of 5 microliters per 1 ml of cell suspension (a 1:200 dilution) in each flask. In these experiments, the cells were treated with chemical under reduced lighting, but not as totally light sensitive.
The cells were then reincubated for 10 minutes at 37° C. The flasks were then placed simultaneously in the chamber of the GammaCell 40 irradiator at room temperature. The dose rate for the Cesium-137 exposure was 121.6 rads/min. It has been determined that the temperature of water in a T-25 flask originally at 37° C. placed in the irradiation chamber decreases during an 8 min period to approximately 30° C. Flasks were removed after exposure of 0, 250 rads (2.5 Gy), 500 rads (5.0 Gy), and 1000 rads (10 Gy).
After the irradiation, the cells were centrifuged and the supernatant discarded. The cells were resuspended in F10p medium, and again centrifuged. The washing process was repeated and the cells were resuspended in 10 ml of complete medium and counted.
A growth curve study was performed in duplicate by initiating flasks with 60 ml of cell suspension at 20,000 cells per ml. The cells were incubated at 37° C. with continued rotation in 250 ml plastic Erlenmeyer flasks. The cell density was determined by Coulter counter on a daily basis over a 72 hour period.
THMG/THG treated L5178Y cells were mass cultured and the cell density determined. Aliquots of the cell suspension with enough cells to give 300,000 cells per ml in 60 ml (1.8×10^7 cells) were distributed into three 50 ml centrifuge tubes, and after centrifugation, the original growth medium was discarded. The cells were resuspended in GIBCO custom formulation medium which had been prepared without phenol red. The cells were then washed one more time by centrifugation and resuspended again in 10 ml of the phenol red-free medium. These 10 ml suspensions of cells containing 1.8×10^7 cells were then transferred into three flasks already containing 50 ml of phenol red-free medium, distilled water, and either 100 nanomoles/ml or 2 micromoles/ml solutions of 3-aminotyrosine. The exposure system was treated as light sensitive (i.e., procedures were performed under gold light or reduced lighting). The cells were then incubated in the dark at 37° C. for 16 hours. Immediately prior to the end of the 16 hours, the cell density was determined by Coulter counter.
At 16 hours, the cells were irradiated at 0, 250, 500, and 1000 rads as described above in the GammaCell irradiator at room temperature. Immediately after irradiation was completed, the cells were centrifuged, washed twice with F10p, and resuspended in 10 ml of F10p. The cell density was again determined by Coulter counter. Growth curve determinations with initial seeding at 20,000 cells per ml were performed for 72 hours as described above. Cell survival assay by soft agar colony formation was performed as described above, using 0.22% BBL agar (BBL Microbiology Systems) in place of the DIFCO agar previously employed. After 11 days incubation at 37° C., colonies were counted and cell survival was determined.

[2] = Autoxidation of 3-amino-L-tyrosine solutions; assay type: physicochemical; settings: solutions yellow with age
Source text: The binding of 3-amino-L-tyrosine to the cell membrane via its alpha amino group, and the subsequent inhibition of CL by inhibiting the binding of Lu-BSA, is unlikely. […] The subsequent washing removes loosely bound 3-amino-L-tyrosine and the addition of the Lu-BSA at pH 6.9 favors BSA binding by the Schiff base reaction. […] The yellowing of 3-amino-L-tyrosine solutions with age is evidence of the oxidation.

[3] = system: T cell (spleen) peroxidase; assay: Inhibition of T cell (spleen) peroxidase activity; assay type: biochemical
[4] = system: Con A-Lu-BSA labeled pig RBCs; assay: Chemiluminescence of Con A-Lu-BSA labeled pig RBCs with exogenous hydrogen peroxide; assay type: cell-based
Experimental: The luminol-bovine serum albumin (Lu-BSA) complex was made by mixing 2 mg luminol (5-amino-2, 3-dihydrophthalazine-1,4-dione), 0.2 ml of 2 mg BSA/ml PBS (pH 6.9), and 1.6 ml of PBS, pH 6.9. The preparation was then passed through a 0.22 μm nitrocellulose filter to remove insoluble luminol. Next, 0.2 ml of 2 mg Con A/ml of PBS, pH 6.9, was added to the filtrate. After gentle mixing, 10 μl of 25% glutaraldehyde were added. The solution was incubated in the refrigerator for 1 hour. To stop the conjugation, 100 mg of glycine was added to the solution. The solution was then pressed through a 48 ml column of dextran gel filtration beads equilibrated with PBS, pH 6.9. The gel exclusion size was greater than 5000 for globular molecules. The fractions were collected and tested for luminescent labeling activity.
One ml of supernatant of each 10 ml aliquot of 1:20 diluted RBCs was replaced with 1 ml of Con A-Lu-BSA solution as previously described. The preparation was incubated for 15 min. at 37° C. in a water-jacketedcell culture incubator. The cells were then pelleted in a clinical centrifuge, resuspended in PBS, and washed in the same manner two additional times. The washed cells were maintained at 4° C. until used the same day of preparation.
Following exposure to chemical or physical stressors, 100 μl of the RBC suspension was added to 500 μl of PBS, pH 7.4, containing 0.3% hydrogen peroxide, in a scintillation vial. To activate the sample, 100 μl of 0.1N NaOH were added to the vial in place in an ATP photometer (Integrating ATP Photometer Model 3000, Science Applications, San Diego, California 92121) The photometer was set to a dark count of 1 count/30 second at a sensitivity of 600 at room temperature (approximately 23° C.). All counts followed a 5 second delay period to allow for stabilization of the photomultiplier. The counts are reported as counts/30 sec.
All essays were run at room temperature. The post-collection age of those cells was 11-18 days and the cells were used the day of labeling. […] Pyruvate (1.43 mM), an autoxidizable substrate, doubled the CL of labeled cells.

## Nc1cc(C[C@H](N)C(=O)O)ccc1O [3-aminotyrosine, 3-amino-L-tyrosine]
[1]; Sixteen hour incubation, 0 rads, 2 micromoles/ml
  Final Cell Density/Initial Cell Density: 71.4
[1]; Sixteen hour incubation, 0 rads, 100 nanomoles/ml
  Final Cell Density/Initial Cell Density: 83.3
[1]; Sixteen hour incubation, 250 rads, 2 micromoles/ml
  Final Cell Density/Initial Cell Density: 34.6
[1]; Sixteen hour incubation, 250 rads, 100 nanomoles/ml
  Final Cell Density/Initial Cell Density: 50.5
[1]; Sixteen hour incubation, 500 rads, 2 micromoles/ml
  Final Cell Density/Initial Cell Density: 6.1
[1]; Sixteen hour incubation, 500 rads, 100 nanomoles/ml
  Final Cell Density/Initial Cell Density: 5.3
[1]; Sixteen hour incubation, 1000 rads, 2 micromoles/ml
  Final Cell Density/Initial Cell Density: 1.1
[1]; Sixteen hour incubation, 1000 rads, 100 nanomoles/ml
  Final Cell Density/Initial Cell Density: 1.3
[1]; Zero hour incubation, 0 rads, 2 micromoles/ml
  Final Cell Density/Initial Cell Density: 25.0
[1]; Zero hour incubation, 0 rads, 100 nanomoles/ml
  Final Cell Density/Initial Cell Density: 20.0
[1]; Zero hour incubation, 250 rads, 2 micromoles/ml
  Final Cell Density/Initial Cell Density: 15.9
[1]; Zero hour incubation, 250 rads, 100 nanomoles/ml
  Final Cell Density/Initial Cell Density: 14.1
[1]; Zero hour incubation, 500 rads, 2 micromoles/ml
  Final Cell Density/Initial Cell Density: 7.7
[1]; Zero hour incubation, 500 rads, 100 nanomoles/ml
  Final Cell Density/Initial Cell Density: 7.7
[1]; Zero hour incubation, 1000 rads, 2 micromoles/ml
  Final Cell Density/Initial Cell Density: 2.2
[1]; Zero hour incubation, 1000 rads, 100 nanomoles/ml
  Final Cell Density/Initial Cell Density: 2.2
[2]
  autoxidation in solution, in words: readily, autoxidizes
[3]
  effect on T cell (spleen) peroxidase activity, in words: inhibit
[4]; 160 μM
  CL (30 sec): 5,430 ± 1,266 counts/30 sec
[4]; 1.44 mM
  CL (30 sec): 844 ± 165 counts/30 sec
[4]; Sus scrofa, Erythrocyte, 160 μM, read-out: Percent control
  activity at 160 µM: 18%
[4]; Sus scrofa, Erythrocyte, 1.44 mM, read-out: Percent control
  activity at 1440 µM: 3%
[4]; Sus scrofa, Erythrocyte, pretreatment 11.5 mM, 30 min at room temperature, read-out: Percent control
  activity at 11500 µM: 74%
[4]; Sus scrofa, 160 μM, read-out: inhibition of CL of labeled RBCs
  inhibition at 160 µM: 82%
[4]; Sus scrofa, 1.44 mM, read-out: inhibition of CL of labeled RBCs
  inhibition at 1440 µM: 97%
[4]; Sus scrofa, 1.44 mM, read-out: inhibition of the natural CL
  inhibition at 1440 µM: 94%
[4]; Sus scrofa, pretreatment of labeled cells with 11.5 mM, 30 min at room temperature, read-out: inhibition of CL
  inhibition at 11500 µM: 26%
[4]; pretreatment 11.5 mM, 30 min at room temperature
  CL (30 sec): 22,457 ± 2,128 counts/30 sec
